The results in this text go back to US8088758B2, “17β-hydroxysteroid dehydrogenase type I inhibitors” (Abbott Products GmbH, priority 2003, dated 2012).

This test has as its target T1, recombinant human 17β-hydroxysteroid dehydrogenase type 1 (Homo sapiens, UniProt P14061).
T1 construct: made in house; host or cells: Sf9 insect cells (baculovirus, Bac to Bac Expression System)
T1 sequence (P14061 1-328): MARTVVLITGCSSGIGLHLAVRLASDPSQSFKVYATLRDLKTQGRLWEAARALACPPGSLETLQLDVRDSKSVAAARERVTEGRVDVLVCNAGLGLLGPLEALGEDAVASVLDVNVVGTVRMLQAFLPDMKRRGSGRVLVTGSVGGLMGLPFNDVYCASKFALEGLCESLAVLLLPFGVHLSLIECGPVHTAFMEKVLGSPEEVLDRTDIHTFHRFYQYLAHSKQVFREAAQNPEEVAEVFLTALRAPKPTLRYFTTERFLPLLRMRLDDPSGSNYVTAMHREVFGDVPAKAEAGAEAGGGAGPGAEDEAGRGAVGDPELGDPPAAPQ
The experiment in a line: Inhibition of recombinant human 17β-hydroxysteroid dehydrogenase type 1 (conversion of 3H-estrone to estradiol, HPLC). Type of test: biochemical. The settings on record: 30 nM 3H-estrone, 1 mM NADPH, 30 min at RT; for inhibition at 0.1 µM: inhibitor 100 nM, read-out: Inhibition of rec. 17β-HSD1 (% inhibition), 100 nM; for inhibition at 1 µM: inhibitor 1 μm, read-out: Inhibition of rec. 17β-HSD1 (% inhibition), 1 μm. The protocol: 1. Inhibition of the 17β-hydroxysteroid Dehydrogenase Type 1 Enzyme
17β-HSD1 Purification: Recombinant baculovirus was generated by the “Bac to Bac Expression System” (Invitrogen). Recombinant bacmid was transfected to Sf9 insect cells using “Cellfectin Reagent” (Invitrogen). 60 h later cells were harvested; the microsomal fraction was isolated as described by Puranen et al. 1994. Aliquots were stored frozen until determination of enzymatic activity.
Assay—Inhibition of Recombinant Human 17β-hydroxysteroid Dehydrogenase Type 1:
Recombinant protein (0.1 μg/ml) was incubated in 20 mM KH2PO4 pH 7.4 with 30 nM 3H-estrone and 1 mM NADPH for 30 min at RT, in the presence of potential inhibitors at concentrations of 1 μM or 0.1 μM. Inhibitor stock solutions were prepared in DMSO. Final concentration of DMSO was adjusted to 1% in all samples. The enzyme reaction was stopped by addition of 10% trichloroacetic acid (final concentration). Samples were centrifuged in a microtiter plate at 4000 rpm for 10 min. Supernatants were applied to reverse phase HPLC on a Waters Symmetry C18 column, equipped with a Waters Sentry Guard column. Isocratic HPLC runs were performed at RT at a flow rate of 1 ml/min of acetonitrile:water 48:52 as running solvent. Radioactivity was monitored in the eluate by a Packard Flow Scintillation Analyzer. Total radioactivity for estrone and estradiol were determined in each sample and percent conversion of estrone to estradiol was calculated according to the following formula:
Percent inhibition was calculated as follows: % inhibition=100−% conversion

As a reminder, the inhibition is the relative decrease from the control value, in per cent.

For `COc1ccc2c(c1)CC[C@H]1[C@@H]3[C@H](CCCCNC(=O)NCc4ccccc4)CC(=O)[C@@]3(C)CC[C@H]21` [Example 477], the inhibition at 0.1 µM was 31.7% and the inhibition at 1 µM stood at 79.5%.

`COc1ccc2c(c1)CC[C@H]1[C@@H]3[C@H](CCCCNC(=O)Nc4ccc(OC)c(OC)c4)CC(=O)[C@@]3(C)CC[C@H]21` [Example 488]: the inhibition at 0.1 µM stood at 60.3% and the inhibition at 1 µM was 91.6%.

On to `C[C@]12CC[C@@H]3c4ccc(O)cc4CC[C@H]3[C@@H]1[C@@H](CCCCNC(=O)NCC1CCCCC1)CC2=O` [Example 491], for which the inhibition at 0.1 µM is 56.9% and the inhibition at 1 µM was 83%.

In the case of `C[C@]12CC[C@@H]3c4ccc(O)cc4CC[C@H]3[C@@H]1[C@@H](CNS(=O)(=O)c1ccc3ccccc3c1)CC2=O` [Example 661], the inhibition at 0.1 µM amounted to 40.1% and the inhibition at 1 µM worked out at 82%.

For `C[C@]12CC[C@@H]3c4ccc(O)cc4CC[C@H]3[C@@H]1[C@@H](CNS(=O)(=O)c1cccs1)CC2=O` [Example 662], the inhibition at 0.1 µM turned out to be 76.9% and the inhibition at 1 µM was 94.8%.

For `C[C@]12CC[C@@H]3c4ccc(O)cc4CC[C@H]3[C@@H]1[C@@H](CNS(=O)(=O)c1ccccc1)CC2=O` [Example 664], the inhibition at 0.1 µM was found to be 60.5% and the inhibition at 1 µM amounted to 92.7%.

Consider `C[C@]12CC[C@@H]3c4ccc(O)cc4CC[C@H]3[C@@H]1[C@@H](CNS(=O)(=O)c1ccc(F)cc1)CC2=O` [Example 665], for which the inhibition at 0.1 µM came to 54.6% and the inhibition at 1 µM was found to be 91.2%.

Take `C[C@]12CC[C@@H]3c4ccc(O)cc4CC[C@H]3[C@@H]1[C@@H](CNS(=O)(=O)c1ccc([N+](=O)[O-])cc1)CC2=O` [Example 667]: the inhibition at 0.1 µM was determined as 30.3% and the inhibition at 1 µM was found to be 72.3%.

Turning to `COc1ccc(S(=O)(=O)NC[C@H]2CC(=O)[C@@]3(C)CC[C@@H]4c5ccc(O)cc5CC[C@H]4[C@H]23)cc1` [Example 668], the inhibition at 0.1 µM is 52.4% and the inhibition at 1 µM amounted to 88.3%.

On to `Cc1cccc(S(=O)(=O)NC[C@H]2CC(=O)[C@@]3(C)CC[C@@H]4c5ccc(O)cc5CC[C@H]4[C@H]23)c1` [Example 677], for which the inhibition at 0.1 µM was 36.9% and the inhibition at 1 µM was determined as 83.7%.

For `C[C@]12CC[C@@H]3c4ccc(O)cc4CC[C@H]3[C@@H]1[C@@H](CNS(=O)(=O)c1cc(S(=O)(=O)c3ccccc3)cs1)CC2=O` [Example 679], the inhibition at 0.1 µM amounted to 26.5% and the inhibition at 1 µM came out at 74.6%.

As for `CN(C[C@H]1CC(=O)[C@@]2(C)CC[C@@H]3c4ccc(O)cc4CC[C@H]3[C@H]12)S(=O)(=O)c1ccc2ccccc2c1` [Example 681], the inhibition at 0.1 µM worked out at 39.7% and the inhibition at 1 µM worked out at 87.1%.

Regarding `CN(C[C@H]1CC(=O)[C@@]2(C)CC[C@@H]3c4ccc(O)cc4CC[C@H]3[C@H]12)S(=O)(=O)c1cccs1` [Example 682], the inhibition at 0.1 µM is 49.2% and the inhibition at 1 µM was 91.8%.

Take `CN(C[C@H]1CC(=O)[C@@]2(C)CC[C@@H]3c4ccc(O)cc4CC[C@H]3[C@H]12)S(=O)(=O)c1ccccc1` [Example 684]: the inhibition at 0.1 µM was 31.3% and the inhibition at 1 µM is 86.9%.

`CN(C[C@H]1CC(=O)[C@@]2(C)CC[C@@H]3c4ccc(O)cc4CC[C@H]3[C@H]12)S(=O)(=O)c1ccc(F)cc1` [Example 685]: the inhibition at 0.1 µM amounted to 36% and the inhibition at 1 µM was 85.6%.

Turning to `COc1ccc(S(=O)(=O)N(C)C[C@H]2CC(=O)[C@@]3(C)CC[C@@H]4c5ccc(O)cc5CC[C@H]4[C@H]23)cc1` [Example 688], the inhibition at 0.1 µM came out at 47.4% and the inhibition at 1 µM worked out at 91.3%.

As for `CN(C[C@H]1CC(=O)[C@@]2(C)CC[C@@H]3c4ccc(O)cc4CC[C@H]3[C@H]12)S(=O)(=O)c1cccc(Cl)c1` [Example 693], the inhibition at 0.1 µM turned out to be 25.8% and the inhibition at 1 µM was found to be 80.1%.

On to `Cc1cccc(S(=O)(=O)N(C)C[C@H]2CC(=O)[C@@]3(C)CC[C@@H]4c5ccc(O)cc5CC[C@H]4[C@H]23)c1` [Example 694], for which the inhibition at 0.1 µM turned out to be 34.6% and the inhibition at 1 µM was determined as 87.3%.

For the compound `CN(C[C@H]1CC(=O)[C@@]2(C)CC[C@@H]3c4ccc(O)cc4CC[C@H]3[C@H]12)S(=O)(=O)c1cc(S(=O)(=O)c2ccccc2)cs1` [Example 696], the inhibition at 0.1 µM turned out to be 35.7% and the inhibition at 1 µM amounted to 80.5%.

On to `COc1ccc2c(c1)CC[C@H]1[C@@H]3[C@H](CCCOC(=O)Nc4ccc(Cl)cc4Cl)CC(=O)[C@@]3(C)CC[C@H]21` [Example 744], for which the inhibition at 0.1 µM amounted to 37.1% and the inhibition at 1 µM was found to be 53.9%.

On to `COc1ccc2c(c1)CC[C@H]1[C@@H]3[C@H](CCCOC(=O)Nc4ccc(C(F)(F)F)cc4)CC(=O)[C@@]3(C)CC[C@H]21` [Example 745], for which the inhibition at 0.1 µM was determined as 29.9% and the inhibition at 1 µM was found to be 53.5%.

Consider `COc1ccc2c(c1)CC[C@H]1[C@@H]3[C@H](CCCOC(=O)Nc4ccc5c(c4)OCO5)CC(=O)[C@@]3(C)CC[C@H]21` [Example 748], for which the inhibition at 0.1 µM was found to be 48.7% and the inhibition at 1 µM is 90.6%.

As to `COc1ccc2c(c1)CC[C@H]1[C@@H]3[C@H](CCCOC(=O)Nc4ccc(Cl)c(Cl)c4)CC(=O)[C@@]3(C)CC[C@H]21` [Example 749], the inhibition at 0.1 µM amounted to 29.8% and the inhibition at 1 µM is 57.3%.

In the case of `COc1ccc2c(c1)CC[C@H]1[C@@H]3[C@H](CCCCOC(=O)Nc4cccc(F)c4)CC(=O)[C@@]3(C)CC[C@H]21` [Example 751], the inhibition at 0.1 µM is 27.7% and the inhibition at 1 µM turned out to be 67.7%.

With `COc1ccc2c(c1)CC[C@H]1[C@@H]3[C@H](CCCCOC(=O)Nc4cccc([N+](=O)[O-])c4)CC(=O)[C@@]3(C)CC[C@H]21` [Example 754], the inhibition at 0.1 µM came to 29.3% and the inhibition at 1 µM turned out to be 65.1%.

`C[C@]12CC[C@@H]3c4ccc(O)cc4CC[C@H]3[C@@H]1[C@H](CCCO)CC2=O` [Example 823, 3-Hydroxy-15β-(3-Hydroxypropyl)-estra-1,3,5(10)-trien-17-one]: the inhibition at 0.1 µM was determined as 76.1% and the inhibition at 1 µM was 97%.
